Assay results: patent publication US10131673B2, “Piperidine substituted tricyclic pyrazolo[1,5-a]pyrimidine derivatives with inhibitory activity on the replication of the respiratory syncytial virus (RSV)” (priority 2014, dated 2018)

What was measured:
rgRSV224 virus = assay: microbe, parasite or virus in culture; assay type: cell-based, respiratory syncytial virus (RSV); conditions: for EC50: human respiratory syncytial virus, HeLa, 72 h, read-out: RSV HELA pEC50 (converted); for RSV HELA pEC50: rgRSV224 virus MOI=1, HeLa cells, GFP expression three days post-virus exposure

Procedure for HeLa cells: Black 384-well clear-bottom microtiter plates (Corning, Amsterdam, The Netherlands) were filled via acoustic drop ejection using the echo liquid handler (Labcyte, Sunnyvale, Calif.). 200 nL of compound stock solutions (100% DMSO) were transferred to the assay plates. 9 serial 4-fold dilutions of compound were made, creating per quadrant the same compound concentration. The assay was initiated by adding 10 μL of culture medium to each well (RPMI medium without phenol red, 10% FBS-heat inactivated, 0.04% gentamycin (50 mg/mL). All addition steps are done by using a multidrop dispenser (Thermo Scientific, Erembodegem, Belgium). Next, rgRSV224 virus (MOI=1) diluted in culture medium was added to the plates. rgRSV224 virus is an engineered virus that includes an additional GFP gene (Hallak L K, Spillmann D, Collins P L, Peeples M E. Glycosaminoglycan sulfation requirements for respiratory syncytial virus infection; Journal of virology (2000), 74(22), 10508-13) and was in-licensed from the NIH (Bethesda, Md., USA). Finally, 20 μL of a HeLa cell suspension (3,000 cells/well) were plated. Medium, virus- and mock-infected controls were included in each test. The wells contain 0.05% DMSO per volume. Cells were incubated at 37° C. in a 5% CO2 atmosphere. Three days post-virus exposure, viral replication was quantified by measuring GFP expression in the cells by an in house developed MSM laser microscope (Tibotec, Beerse, Belgium). The EC50 was defined as the 50% inhibitory concentration for GFP expression. In parallel, compounds were incubated for three days in a set of white 384-well microtiter plates (Corning) and the cytotoxicity of compounds in HeLa cells was determined by measuring the ATP content of the cells using the ATPlite kit (Perkin Elmer, Zaventem, Belgium) according to the manufacturer's instructions. The CC50 was defined as the 50% concentration for cytotoxicity.

| SMILES | EC50 (rgRSV224 virus) [nM] | TOX HELA pCC50 (HeLa cells) | RSV HELA pEC50 (rgRSV224 virus) |
| --- | --- | --- | --- |
| Cc1ccc(NS(C)(=O)=O)c(C(=O)N2CCCC[C@@H]2c2cc3nc4c(c(N5CCOCC5)n3n2)CCCC4)c1 [Compound P2, (R)—N-(4-methyl-2-(2-(9-morpholino-5,6,7,8-tetrahydropyrazolo[5,1-b]quinazolin-2-yl)-piperidine-1-carbonyl)phenyl)methanesulfonamide] | 13.2 | 4.3 | – |
| Cc1cccc2ncnc(N3CCCC[C@H]3c3cc4nc5c(c(C)n4n3)CCCC5)c12 [Compound P38] | – | 4.6 | 6.79 |
| Cc1ccc(NS(C)(=O)=O)c(C(=O)N2CCCCC2c2cc3nc4c(c(N5CCOCC5)n3n2)CCCC4)c1 (racemic) [Compound P1, N-(4-methyl-2-(2-(9-morpholino-5,6,7,8-tetrahydropyrazolo[5,1-b]quinazolin-2-yl)piperidine-1-carbonyl)phenyl)methanesulfonamide] | 1.78 | 4.4 | – |
| Cc1ccc(NS(C)(=O)=O)c(C(=O)N2CCCCC2c2cc3nc4c(c(N5CCOCC5)n3n2)CCCCC4)c1 (stereo not drawn) [Compound P23, N-(4-methyl-2-(2-(10-morpholino-6,7,8,9-tetrahydro-5H-cyclohepta[d]-pyrazolo[1,5-a]pyrimidin-2-yl)piperidine-1-carbonyl)phenyl)-methanesulfonamide] | 66.1 | 4.6 | – |
| CCOc1nc(N2CCCCC2c2cc3nc4c(c(N5CCOCC5)n3n2)COCC4)c2c(C)cccc2n1 (stereo not drawn) [Compound P33, 2-(1-(2-ethoxy-5-methylquinazolin-4-yl)piperidin-2-yl)-9-morpholino-6,8-dihydro-5H-pyrano[4,3-d]pyrazolo[1,5-a]pyrimidine] | 813 | 4.4 | – |
| Cc1cccc2nc(NS(C)(=O)=O)nc(N3CCCCC3c3cc4nc5c(c(N6CCOCC6)n4n3)CCC5)c12 (stereo not drawn) [Compound P41, N-(5-methyl-4-(2-(8-morpholino-6,7-dihydro-5H-cyclopenta[d]pyrazolo-[1,5-a]pyrimidin-2-yl)piperidin-1-yl)quinazolin-2-yl)methanesulfonamide] | 229 | 4 | – |
| FC(F)(F)c1cccc2ncnc(N3CCCCC3c3cc4nc5c(c(N6CCOCC6)n4n3)CCCC5)c12 (stereo not drawn) [Compound P11, 4-(2-(1-(5-(trifluoromethyl)quinazolin-4-yl)piperidin-2-yl)-5,6,7,8-tetrahydropyrazolo[5,1-b]quinazolin-9-yl)morpholine] | 676 | 4.7 | – |
| Cc1cccc2ncnc(N3CCCCC3c3cc4nc5c(c(N6CCOCC6)n4n3)COCC5)c12 (stereo not drawn) [Compound P30, 2-(1-(5-methylquinazolin-4-yl)piperidin-2-yl)-9-morpholino-6,8-dihydro-5H-pyrano[4,3-d]pyrazolo[1,5-a]pyrimidine] | 282 | 4 | – |
| Cc1ccc(NS(C)(=O)=O)c(C(=O)N2CCCCC2c2cc3nc4c(c(N5CCOCC5)n3n2)COCC4)c1 (stereo not drawn) [Compound P34, N-(4-methyl-2-(2-(9-morpholino-6,8-dihydro-5H-pyrano[4,3-d]pyrazolo-[1,5-a]pyrimidin-2-yl)piperidine-1-carbonyl)phenyl)methanesulfonamide] | 20.9 | 4.6 | – |
| Fc1cccc2ncnc(N3CCCCC3c3cc4nc5c(c(N6CCOCC6)n4n3)CCCC5)c12 (stereo not drawn) [Compound P10, 4-(2-(1-(5-fluoroquinazolin-4-yl)piperidin-2-yl)-5,6,7,8-tetrahydropyrazolo-[5,1-b]quinazolin-9-yl)morpholine] | 891 | 4.6 | – |
| Cc1ccc2ncnc(N3CCCCC3c3cc4nc5c(c(N6CCOCC6)n4n3)CCCC5)c2c1 (stereo not drawn) [Compound P4, 4-(2-(1-(6-methylquinazolin-4-yl)piperidin-2-yl)-5,6,7,8-tetrahydropyrazolo[5,1-b]quinazolin-9-yl)morpholine] | 166 | 4.7 | – |
| Cc1cccc2ncnc(N3CCCCC3c3cc4nc5c(c(N6CCOCC6)n4n3)CCCCC5)c12 (stereo not drawn) [Compound P24, 4-(2-(1-(5-methylquinazolin-4-yl)piperidin-2-yl)-6,7,8,9-tetrahydro-5H-cyclohepta[d]pyrazolo[1,5-a]pyrimidin-10-yl)morpholine] | 9550 | 4.8 | – |
| Cc1cccc2nc(NS(C)(=O)=O)nc(N3CCCCC3c3cc4nc5c(c(N6CCOCC6)n4n3)COCC5)c12 (stereo not drawn) [Compound P32, N-(5-methyl-4-(2-(9-morpholino-6,8-dihydro-5H-pyrano[4,3-d]pyrazolo-[1,5-a]pyrimidin-2-yl)piperidin-1-yl)quinazolin-2-yl)methanesulfonamide] | 55 | 4 | – |
| Cc1ccc2nc(NS(C)(=O)=O)nc(N3CCCCC3c3cc4nc5c(c(N6CCOCC6)n4n3)CCCC5)c2c1 (stereo not drawn) [Compound P9, N-(6-methyl-4-(2-(9-morpholino-5,6,7,8-tetrahydropyrazolo[5,1-b]-quinazolin-2-yl)piperidin-1-yl)quinazolin-2-yl)methanesulfonamide] | 13.5 | 4.3 | – |
| CCc1ccc2ncnc(N3CCCCC3c3cc4nc5c(c(N6CCOCC6)n4n3)CCCC5)c2c1C (stereo not drawn) [Compound P13, 4-(2-(1-(6-ethyl-5-methylquinazolin-4-yl)piperidin-2-yl)-5,6,7,8-tetrahydropyrazolo[5,1-b]quinazolin-9-yl)morpholine] | 724 | 4.7 | – |
| Cc1nc2cc([C@@H]3CCCCN3c3ncnc4cccc(C)c34)nn2c2c1CCCC2 [Compound P40] | – | 4.7 | 6.7 |
| Cc1ccc(NS(C)(=O)=O)c(C(=O)N2CCCC[C@H]2c2cc3nc4c(c(N5CCOCC5)n3n2)CCCC4)c1 [Compound P3, (S)—N-(4-methyl-2-(2-(9-morpholino-5,6,7,8-tetrahydropyrazolo[5,1-b]quinazolin-2-yl)piperidine-1-carbonyl)-phenyl)methanesulfonamide] | 0.562 | 4.5 | – |
| Cc1cccc2ncnc(N3CCCCC3c3cc4nc5c(cn4n3)CCCC5)c12 (stereo not drawn) [Compound P18, 2-(1-(5-methylquinazolin-4-yl)piperidin-2-yl)-5,6,7,8-tetrahydropyrazolo-[5,1-b]quinazoline] | 3890 | 4.3 | – |
| Cc1cccc2ncnc(N3CCCCC3c3cc4nc5c(c(N(C)C)n4n3)CCN5C)c12 (stereo not drawn) [Compound P42, N,N,5-trimethyl-2-(1-(5-methylquinazolin-4-yl)piperidin-2-yl)-6,7-dihydro-5H-pyrazolo[1,5-a]pyrrolo[2,3-d]pyrimidin-8-amine] | 16.6 | 4.6 | – |
| Cc1ccc(NS(C)(=O)=O)c(C(=O)N2CCCCC2c2cc3nc4c(c(N(C)C)n3n2)CCCC4)c1 (stereo not drawn) [Compound P15, N-(2-(2-(9-(dimethylamino)-5,6,7,8-tetrahydropyrazolo[5,1-b]quinazolin-2-yl)piperidine-1-carbonyl)-4-methylphenyl)methanesulfonamide] | 1.78 | 4.6 | – |
| Cc1nc2cc([C@H]3CCCCN3c3ncnc4cccc(C)c34)nn2c2c1CCCC2 [Compound P39] | – | 4.9 | 5.55 |
| Cc1cccc2ncnc(N3CCCCC3c3cc4nc5c(c(N6CCOCC6)n4n3)CCOC5)c12 (stereo not drawn) [Compound P29, 2-(1-(5-methylquinazolin-4-yl)piperidin-2-yl)-9-morpholino-7,8-dihydro-5H-pyrano[3,4-d]pyrazolo[1,5-a]pyrimidine] | 3720 | 4 | – |
| Cc1ccc(NS(C)(=O)=O)c(C(=O)N2CCCCC2c2cc3nc4c(c(N5CCOCC5)n3n2)COC4)c1 (stereo not drawn) [Compound P25, N-(4-methyl-2-(2-(8-morpholino-5,7-dihydrofuro[3,4-d]pyrazolo[1,5-a]-pyrimidin-2-yl)piperidine-1-carbonyl)phenyl)methanesulfonamide] | 468 | 4 | – |
| Cc1ccc(NS(C)(=O)=O)c(C(=O)N2CCCCC2c2cc3nc4c(c(N)n3n2)CCCC4)c1 (stereo not drawn) [Compound P19, N-(2-(2-(9-amino-5,6,7,8-tetrahydropyrazolo[5,1-b]quinazolin-2-yl)-piperidine-1-carbonyl)-4-methylphenyl)methanesulfonamide] | 19.5 | 4.3 | – |
| Cc1cccc2ncnc(N3CCCCC3c3cc4nc5c(c(N6CCOCC6)n4n3)CCC5)c12 (stereo not drawn) [Compound P21, 4-(2-(1-(5-methylquinazolin-4-yl)piperidin-2-yl)-6,7-dihydro-5H-cyclopenta[d]pyrazolo[1,5-a]pyrimidin-8-yl)morpholine] | 708 | 4.6 | – |
| Cc1cccc2nc(Cl)nc(N3CCCCC3c3cc4nc5c(c(N6CCOCC6)n4n3)CCCC5)c12 (stereo not drawn) [Compound P6, 4-(2-(1-(2-chloro-5-methylquinazolin-4-yl)piperidin-2-yl)-5,6,7,8-tetrahydropyrazolo[5,1-b]quinazolin-9-yl)morpholine] | 1200 | 4.8 | – |
| Cc1cccc2ncnc(N3CCCC[C@@H]3c3cc4nc5c(c(C)n4n3)CCCC5)c12 [Compound P37] | – | 4.4 | 5.11 |
| Cc1ccc(NS(C)(=O)=O)c(C(=O)N2CCCCC2c2cc3nc4c(c(N5CCOCC5)n3n2)CCOC4)c1 (stereo not drawn) [Compound P28, N-(4-methyl-2-(2-(9-morpholino-7,8-dihydro-5H-pyrano[3,4-d]pyrazolo-[1,5-a]pyrimidin-2-yl)piperidine-1-carbonyl)phenyl)methane-sulfonamide] | 355 | 4.6 | – |
| Cc1ccc(NS(C)(=O)=O)c(C(=O)N2CCCCC2c2cc3nc4c(c(N5CCOCC5)n3n2)CCC4)c1 (stereo not drawn) [Compound P20, N-(4-methyl-2-(2-(8-morpholino-6,7-dihydro-5H-cyclopenta[d]pyrazolo-[1,5-a]pyrimidin-2-yl)piperidine-1-carbonyl)phenyl)methanesulfonamide] | 22.9 | 4.2 | – |
| Cc1cccc2ncnc(N3CCCCC3c3cc4nc5c(c(N(C)C)n4n3)CCCC5)c12 (stereo not drawn) [Compound P16, N,N-dimethyl-2-(1-(5-methylquinazolin-4-yl)piperidin-2-yl)-5,6,7,8-tetrahydropyrazolo[5,1-b]quinazolin-9-amine] | 407 | 4 | – |
